These results are taken from patent US4447452A, “N[(2-Naphthalenyl)thioxomethyl]glycine derivatives” (Ayerst, McKenna & Harrison Inc., priority 1981, dated 1984).

The subject of experiment [1] is aldose reductase. Conditions: literature report; cited from earlier work.
Experiment [2] deals with T1, aldose reductase (Bos taurus, UniProt P16116).
T1 construct: preparation of the enzyme from bovine lens; from tissue; host or cells: bovine lens
As to the kind of experiment: in vitro aldose reductase inhibition (modified Hayman and Kinoshita procedure, enzyme from bovine lens). The format is biochemical. Conditions: read-out: % Inhibition at Different Molar Concentrations (in vitro); for inhibition at 10 µM: 10^-5 molar; for inhibition at 1 µM: 10^-6 molar; for inhibition at 0.1 µM: 10^-7 molar. As for the experimental part: In the present case the procedure of Hayman and Kinoshita is modified in that the final chromatography step is omitted in the preparation of the enzyme from bovine lens.
The following results were obtained when the compounds of this invention were evaluated in the above in vitro test.

As to `O=C(O)CN1C(=O)c2cccc3cccc(c23)C1=O` [1,3-Dioxo-1H-benz[de]isoquinoline-2(3H)-acetic acid], in the experiment on aldose reductase [1], the “inhibition of aldose reductase (in words)” value was “effective inhibitor of aldose reductase”.

Take `O=C1NC(=O)[C@@]2(CCOc3ccc(F)cc32)N1` [sorbinil, (S)-6-Fluoro-2,3-dihydrospiro(4H-1-benzopyran-4,4'-imidazolidine)-2',5'-dione]: the “inhibition of aldose reductase (in words)” value in the experiment on aldose reductase [1] is “aldose reductase inhibiting properties”.

In the case of `CN(CC(=O)O)C(=S)c1ccc2cc(Br)ccc2c1` [CH3 6-Br, N-[(6-Bromo-2-naphthalenyl)thioxomethyl]-N-methylglycine], on aldose reductase [2], the inhibition at 10 µM stood at 84%, the inhibition at 1 µM came to 60% and the inhibition at 0.1 µM came to 19%.

For `CN(CC(=O)O)C(=S)c1ccc2c(Br)cccc2c1` [CH3 5-Br, N-[(5-bromo-2-naphthalenyl)thioxomethyl]-N-methylglycine], at aldose reductase [2], the inhibition at 10 µM came to 87%, the inhibition at 1 µM was 70% and the inhibition at 0.1 µM was 21%.
